Laboratory results as given in paper PMC6154976, “The potential HLA Class I-restricted epitopes derived from LeIF and TSA of Leishmania donovani evoke anti-leishmania CD8+ T lymphocyte response” (Scientific Reports, 2018).
“Also recorded” adds a separate entry of the source.

What was measured:
[1] = target: HLA-A*0201 molecule on T2 cells (Homo sapiens, UniProt P04439, D140Y/D185E/D98H/E176V/E277Q/G131W/G231S/I119V/I121R/I166T/I218V/L300P/L318F/N151K/N90K/P208A/P217A/Q86G/Q94H/R138H/R169H/T345S); assay: Peptide-binding assay (HLA stabilization assay, T2 cell line); type: cell-based; conditions: 20 μg/mL peptide, 20 hours, FI more than 1 = strong binding, Fig. S2; for fluorescence index (FI) value: T2 cells 2 × 10^5/well, serum-free RPMI, 37 °C, FACS, PE anti-HLA-A 02 (BB7.2), triplicate
Protocol: The efficiency of the shortlisted epitopes to stabilize the HLA-A 02 allele was measured by HLA stabilization assay using TAP-deficient human cell line that express HLA-A2 (T2 cell line) according to our previously described methodology with certain modifications. Briefly, T2 cells (2 × 10^5/well) were cultured with 20 μg/mL of individual peptides in serum-free RPMI medium for 20 hours at 37 °C in 5% CO2. The HLA stabilization assay was performed in triplicate for each peptide. The tumor HLA A2 bound 10mer peptide was used as positive control. The expression of HLA-A 02 on T2 cells was measured by PE-conjugated mouse anti-human HLA-A 02 monoclonal antibody (clone: BB7.2; Pharmingen), the samples were acquired by FACS Calibur and analyzed by CellQuest software (BD Biosciences). The binding affinity of each peptide was measured by a fluorescence index: FI = (mean PE fluorescence with the given peptide−mean PE fluorescence without peptide)/(mean […] fluorescence without peptide). The epitope with a fluorescence index (FI) more than 1 was considered as strong binding affinity epitopes.

[2] = tested on: PBMCs from HLA A2 negative VL treated subjects; assay: Intracellular IFN-γ from CD8+ T cells (FACS); type: cell-based, human; conditions: six HLA A2 negative subjects, overnight plus 6 h brefeldin-A
Protocol: To evaluate the ability of the selected epitopes to trigger the immune cells by CD8+ T cell dependent manner, PBMCs (1 × 10^6/ml) from five HLAA2 positive VL treated subjects were incubated for overnight in the presence or absence of peptide at 37 °C and 5% CO2. Additionally, six HLA A2 negative VL treated subjects were also considered for this study. Stimulation with SLA was run in parallel to all experiments as described previously. After overnight incubation followed by 6 h incubation with brefeldin-A (1 mg/ml), cells were harvested, washed with PBS, and stained with anti-CD3-PerCP (BD Biosciences) and anti-CD8-FITC(BD Biosciences) conjugated antibodies for 30 min at 4 °C. The cells were then washed with stain buffer, fixed and permeabilized Cytofix-Cytoperm buffer (BD Biosciences) for 20 minutes at 4 °C. The intracellular level of IFN-γ was stained with anti-IFN-γ PE-conjugated antibody (BD Biosciences) for 30 minutes and washed with perm wash buffer (BD Biosciences). A logical gate set using was used to measure the co-expression of intracellular CD8+ ve IFN-γ. At least 30 000 cells were acquired for each analysis, and the results are shown in percentage gated value (% gated).

| Sequence | binding to / stabilization of HLA-A*0201 on T2 cells, in words [1] | fluorescence index (FI) value [1] | intracellular CD3+ ve CD8+ ve IFN-γ [2] |
| --- | --- | --- | --- |
| FIIDPNGMV [P8] | relatively weakly bound |  |  |
| KVLTLFAEV [P5] | stabilized the HLA A2; also recorded: strongly bound | above 2 | triggered the HLA A2-ve host immune cells by producing CD8+ IFN-γ; also recorded: triggered CD3+ ve CD8+ ve IFN-γ level; also recorded: enhanced CD3+ CD8+ IFN-γ |
| LLLAEPFPV [P4] | stabilized the HLA A2; also recorded: strongly bound | 1.81 | triggered the HLA A2-ve host immune cells by producing CD8+ IFN-γ |
| MLADKTKSI [P6] | relatively weakly bound |  |  |
| RLLEAFQFV [P7] | stabilized the HLA A2; also recorded: strongly bound | above 2 | triggered CD3+ ve CD8+ ve IFN-γ level; also recorded: enhanced CD3+ CD8+ IFN-γ |
| SLARRKLLL [P3] | relatively weakly bound |  |  |
| SMDSEYAHL [P9] | relatively weakly bound |  |  |
| TLDHLLVLL [P1] | stabilized the HLA A2; also recorded: strongly bound | above 2 | triggered the HLA A2-ve host immune cells by producing CD8+ IFN-γ; also recorded: triggered CD3+ ve CD8+ ve IFN-γ level; also recorded: enhanced CD3+ CD8+ IFN-γ |
| VLLEKATIL [P2] | stabilized the HLA A2; also recorded: strongly bound | above 2 |  |
